Results from paper PMC8556396, “Statin-mediated disruption of Rho GTPase prenylation and activity inhibits respiratory syncytial virus infection” (Communications Biology, 2021).
Several values for one entry are separate records, joined by “and”; a condition that tells them apart may be missing. Identical values can stand only once.

How the values were obtained:
RSV A2 = assay: Immunofluorescence staining and microscopy of RSV F and N; conditions: for RSV F intensity (a.u.): Fig 5D; for RSV N intensity (a.u.): Fig 5E;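 for RSV F intensity (a.u.): fluorescence normalized to total nuclear count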;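 for RSV N intensity (a.u.): fluorescence normalized to total nuclear count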
Experimental: HEp-2 cells were seeded to No. 1 glass coverslips (1014355117NR1, Thermo Fisher Scientific) for high-resolution confocal microscopy, or black, flat, microclear-bottom 96-well plates (655096, Greiner Bio-One) for high-throughput quantification of RSV F and N immunofluorescence. Cells were infected with RSV A2 (MOI 0.5). At 48 h p.i., cells were fixed in 4% paraformaldehyde for 30 min and permeabilized with 0.3% Triton X-100 for 10 min at room temperature. F and N proteins were probed using mouse anti-RSV F (RSV3216) and mouse anti-RSV N (RSV3132) mAbs (Bio-Rad Antibodies) diluted 1:500 in PBS + 0.1% Tween-20 (PBST), or mouse anti-RSV F mAb Alexa Fluor 488 conjugate (Millipore Sigma, 133/1H) diluted 1:200 in PBST over a 1-h incubation at room temperature. This was followed by detection with secondary anti-mouse Fab fragments conjugated to Alexa Fluor 488 (4408) or 647 (4410) (Cell Signaling Technology) diluted 1:1000 in PBST over a 1-h incubation at room temperature. Fluorescent images were acquired using either the Cellomics ArrayScan VTI HCS Reader at ×10 magnification (for quantification) or Olympus IX81 Spinning Disk Confocal microscope at ×60 magnification with oil immersion (for high-resolution images). F and N immunofluorescence was quantified in CellProfiler and normalized to total nuclear count.

[1] = in vivo; cited from earlier work
[2] = FTI-276 0.5 uM, perillyl alcohol 0.5 mM
[3] = FTI-276 1 uM, perillyl alcohol 1 mM

SMILES: C=C(C)[C@@H]1CC=C(CO)CC1 [Perillyl alcohol, perillyl alcohol]
- RSV F intensity (a.u.) (RSV A2; [2]): 4.838 a.u. and 4.168 a.u. and 3.383 a.u.
- RSV F intensity (a.u.) (RSV A2; [3]): 5.114 a.u. and 3.157 a.u.
- RSV F intensity (a.u.) (RSV A2; FTI-276 5 uM, perillyl alcohol 5 mM): 0.705 a.u. and 0.8175 a.u. and 0.8487 a.u.
- RSV N intensity (a.u.) (RSV A2; [2]): 6.098 a.u. and 3.977 a.u. and 5.388 a.u. and 3.797 a.u.
- RSV N intensity (a.u.) (RSV A2; [3]): 3.037 a.u. and 4.82 a.u. and 2.725 a.u. and 4.829 a.u.
- effect of prenyltransferase inhibitor on RSV A2 infection (RSV A2; HEp-2, F and N immunofluorescence): dose-dependently reduced RSV A2 infection
- reduction of N protein intensity (RSV A2; relative to DMSO, 48 h p.i., PA 5.0 mM, EHT 1864 20.0 µM): 82.7 ± 3.3%
- tolerability [1]: well-tolerated in humans
